Measured values taken from US20260020570A1, “HERBICIDAL COMBINATIONS AND A METHOD FOR CONTROLLING UNDESIRED VEGETATION” (UPL Mauritius Limited, priority 2022, published 2026).

System: Eleusine indica
Test: Post-emergence herbicidal efficacy of L-glufosinate ammonium, additional herbicides and their combinations; expected efficacy by the Colby method
Format: in vivo
Procedure: The following products were used for testing the weed control efficacy of present herbicidal combinations.
Evaluation of Post-Emergence Herbicidal Activity:
Methodology: Trials were carried out to evaluate the efficacy of the combinations comprising L-glufosinate ammonium and the additional herbicides on Eleusine genus weeds.
All treatments were in 4 replications per treatment with a spray volume of about 150 L/ha.
Efficacy Evaluation: The expected efficacy of a combination comprising L-glufosinate ammonium and additional herbicides was calculated using the well-established Colby method.
In the Colby method, the expected (or predicted) response of a combination of herbicides is calculated by taking the product of the observed response for each individual component of the combination when applied alone, divided by 100, and subtracting this value from the sum of the observed response for each component when applied alone. An unexpected enhancement in efficacy of the combination is then determined by comparing the observed response of the combination to the expected (or predicted) response as calculated from the observed response of each individual component alone. […] The Colby method requires only a single dose of each herbicide applied alone and the mixture of both doses. The formula used to calculate the expected efficacy (EE) which was compared with the observed efficacy (OE) to determine the efficacy of the present disclosure is explained hereinbelow:
The expected efficacy for a combination of two active ingredients is as follows:
[formula] • wherein, • A=Observed efficacy of active ingredient A at the same concentration as used in the mixture. • B=Observed efficacy of the active ingredient B at the same concentration as used in the mixture.

Cn1nc(C(F)(F)F)c(CS(=O)(=O)C2=NOC(C)(C)C2)c1OC(F)F [Pyroxasulfone]
Observed efficacy (%) of Pyroxasulfone (75 g a.i./ha) (7 DAA, Table 11): 5%
Observed efficacy (%) of Pyroxasulfone (75 g a.i./ha) (14 DAA, Table 11): 30%

Cc1ccc2c(c1)[C@H](Nc1nc(N)nc(C(C)F)n1)[C@@H](C)C2 (some centres unmarked) [Indaziflam]
Observed efficacy (%) of Indaziflam (50 g a.i./ha) (7 DAA, Table 9): 60%
Observed efficacy (%) of Indaziflam (50 g a.i./ha) (14 DAA, Table 9): 80%
Observed efficacy (%) of Indaziflam (50 g a.i./ha) (21 DAA, Table 9): 85%
Observed efficacy (%) of Indaziflam (50 g a.i./ha) (28 DAA, Table 9): 85%

CCc1cccc(C)c1N(C(=O)CCl)[C@@H](C)COC [S-metolachlor]
Observed efficacy (%) of S-metolachlor (960 g a.i./ha) (7 DAA, Table 8): 5%
Observed efficacy (%) of S-metolachlor (960 g a.i./ha) (14 DAA, Table 8): 40%
Observed efficacy (%) of S-metolachlor (960 g a.i./ha) (21 DAA, Table 8): 40%
Observed efficacy (%) of S-metolachlor (960 g a.i./ha) (28 DAA, Table 8): 65%

CCc1cccc(C)c1N(COC(C)C)C(=O)CCl [Propisochlor]
Observed efficacy (%) of Propisochlor (540 g a.i./ha) (7 DAA, Table 13): 0%
Observed efficacy (%) of Propisochlor (540 g a.i./ha) (14 DAA, Table 13): 0%

CS(=O)(=O)c1cc(C(F)(F)F)ccc1C(=O)c1cnoc1C1CC1 [Isoxaflutole]
Observed efficacy (%) of Isoxaflutole (60 g a.i./ha) (7 DAA, Table 10): 40%
Observed efficacy (%) of Isoxaflutole (60 g a.i./ha) (14 DAA, Table 10): 75%
Observed efficacy (%) of Isoxaflutole (60 g a.i./ha) (21 DAA, Table 10): 85%

CCOC(=O)C(C)Oc1ccc(Oc2cnc3cc(Cl)ccc3n2)cc1 (centres unmarked) [quizalofop-ethyl, Quizalofop-ethyl]
Observed efficacy (%) of quizalofop-ethyl (25 g a.i./ha) (21 DAA, Table 16): 95%

C[N+](C)(C)CCO.O=C([O-])COc1ccc(Cl)cc1Cl [2,4-D choline]
Observed efficacy (%) of 2,4-D choline (228 g a.i./ha) (7 DAA, Table 18): 10%
Observed efficacy (%) of 2,4-D choline (228 g a.i./ha) (14 DAA, Table 18): 10%
Observed efficacy (%) of 2,4-D choline (228 g a.i./ha) (21 DAA, Table 18): 10%
Observed efficacy (%) of 2,4-D choline (228 g a.i./ha) (28 DAA, Table 18): 5%

CCN(CC)C(=O)C(C)Oc1cccc2ccccc12 (centres unmarked) [napropamide, Napropamide]
Observed efficacy (%) of napropamide (675 g a.i./ha) (7 DAA, Table 12): 5%
Observed efficacy (%) of napropamide (675 g a.i./ha) (14 DAA, Table 12): 5%
Observed efficacy (%) of napropamide (675 g a.i./ha) (21 DAA, Table 12): 5%
Observed efficacy (%) of napropamide (675 g a.i./ha) (28 DAA, Table 12): 5%

CP(=O)(O)CC[C@H](N)C(=O)O.N [L-glufosinate ammonium]
Observed efficacy (%) of L-glufosinate ammonium (150 g a.i./ha) (3 DAA, Table 15): 40%
Observed efficacy (%) of L-glufosinate ammonium (150 g a.i./ha) (7 DAA, Table 8): 35%
Observed efficacy (%) of L-glufosinate ammonium (150 g a.i./ha) (7 DAA, Table 9): 35%
Observed efficacy (%) of L-glufosinate ammonium (150 g a.i./ha) (7 DAA, Table 10): 35%
Observed efficacy (%) of L-glufosinate ammonium (150 g a.i./ha) (7 DAA, Table 11): 35%
Observed efficacy (%) of L-glufosinate ammonium (150 g a.i./ha) (7 DAA, Table 12): 40%
Observed efficacy (%) of L-glufosinate ammonium (150 g a.i./ha) (7 DAA, Table 13): 35%
Observed efficacy (%) of L-glufosinate ammonium (150 g a.i./ha) (7 DAA, Table 15): 50%
Observed efficacy (%) of L-glufosinate ammonium (150 g a.i./ha) (7 DAA, Table 18): 70%
Observed efficacy (%) of L-glufosinate ammonium (150 g a.i./ha) (14 DAA, Table 8): 25%
Observed efficacy (%) of L-glufosinate ammonium (150 g a.i./ha) (14 DAA, Table 9): 25%
Observed efficacy (%) of L-glufosinate ammonium (150 g a.i./ha) (14 DAA, Table 10): 25%
Observed efficacy (%) of L-glufosinate ammonium (150 g a.i./ha) (14 DAA, Table 11): 30%
Observed efficacy (%) of L-glufosinate ammonium (150 g a.i./ha) (14 DAA, Table 12): 30%
Observed efficacy (%) of L-glufosinate ammonium (150 g a.i./ha) (14 DAA, Table 13): 30%
Observed efficacy (%) of L-glufosinate ammonium (150 g a.i./ha) (14 DAA, Table 15): 40%
Observed efficacy (%) of L-glufosinate ammonium (150 g a.i./ha) (14 DAA, Table 18): 65%
Observed efficacy (%) of L-glufosinate ammonium (150 g a.i./ha) (21 DAA, Table 8): 20%
Observed efficacy (%) of L-glufosinate ammonium (150 g a.i./ha) (21 DAA, Table 9): 15%
Observed efficacy (%) of L-glufosinate ammonium (150 g a.i./ha) (21 DAA, Table 10): 20%
Observed efficacy (%) of L-glufosinate ammonium (150 g a.i./ha) (21 DAA, Table 12): 20%
Observed efficacy (%) of L-glufosinate ammonium (150 g a.i./ha) (21 DAA, Table 15): 38%
Observed efficacy (%) of L-glufosinate ammonium (150 g a.i./ha) (21 DAA, Table 16): 35%
Observed efficacy (%) of L-glufosinate ammonium (150 g a.i./ha) (21 DAA, Table 17): 25%
Observed efficacy (%) of L-glufosinate ammonium (150 g a.i./ha) (21 DAA, Table 18): 60%
Observed efficacy (%) of L-glufosinate ammonium (150 g a.i./ha) (28 DAA, Table 8): 10%
Observed efficacy (%) of L-glufosinate ammonium (150 g a.i./ha) (28 DAA, Table 9): 5%
Observed efficacy (%) of L-glufosinate ammonium (150 g a.i./ha) (28 DAA, Table 12): 10%
Observed efficacy (%) of L-glufosinate ammonium (150 g a.i./ha) (28 DAA, Table 14): 40%
Observed efficacy (%) of L-glufosinate ammonium (150 g a.i./ha) (28 DAA, Table 15): 30%
Observed efficacy (%) of L-glufosinate ammonium (150 g a.i./ha) (28 DAA, Table 17): 20%
Observed efficacy (%) of L-glufosinate ammonium (150 g a.i./ha) (28 DAA, Table 18): 50%
Observed efficacy (%) of L-glufosinate ammonium (150 g a.i./ha) (35 DAA, Table 15): 20%
Observed efficacy (%) of L-glufosinate ammonium (150 g a.i./ha) (35 DAA, Table 17): 18%

CS(=O)(=O)c1ccc(C(=O)C2C(=O)CCCC2=O)c(Cl)c1COCC(F)(F)F [tembotrione, Tembotrione]
Observed efficacy (%) of tembotrione (53 g a.i./ha) (3 DAA, Table 15): 5%
Observed efficacy (%) of tembotrione (53 g a.i./ha) (7 DAA, Table 15): 15%
Observed efficacy (%) of tembotrione (53 g a.i./ha) (14 DAA, Table 15): 40%
Observed efficacy (%) of tembotrione (53 g a.i./ha) (21 DAA, Table 15): 38%
Observed efficacy (%) of tembotrione (53 g a.i./ha) (28 DAA, Table 15): 35%
Observed efficacy (%) of tembotrione (53 g a.i./ha) (35 DAA, Table 15): 30%

COc1c(Cl)ccc(Cl)c1C(=O)O [Dicamba]
Observed efficacy (%) of Dicamba (228 g a.i./ha) (28 DAA, Table 14): 5%

C[C@@H](Oc1ccc(Oc2cnc3cc(Cl)ccc3n2)cc1)C(=O)OCC1CCCO1 (some centres unmarked) [quizalofop-p-tefuryl, Quizalofop-p-tefuryl]
Observed efficacy (%) of quizalofop-p-tefuryl (25 g a.i./ha) (21 DAA, Table 17): 10%
Observed efficacy (%) of quizalofop-p-tefuryl (25 g a.i./ha) (28 DAA, Table 17): 5%
Observed efficacy (%) of quizalofop-p-tefuryl (25 g a.i./ha) (35 DAA, Table 17): 5%
